One assay has as its target T1, Recombinant IKKα (Homo sapiens, UniProt O15111).
T1 construct: purchased Millipore, Dundee, UK
T1 sequence (O15111 1-745): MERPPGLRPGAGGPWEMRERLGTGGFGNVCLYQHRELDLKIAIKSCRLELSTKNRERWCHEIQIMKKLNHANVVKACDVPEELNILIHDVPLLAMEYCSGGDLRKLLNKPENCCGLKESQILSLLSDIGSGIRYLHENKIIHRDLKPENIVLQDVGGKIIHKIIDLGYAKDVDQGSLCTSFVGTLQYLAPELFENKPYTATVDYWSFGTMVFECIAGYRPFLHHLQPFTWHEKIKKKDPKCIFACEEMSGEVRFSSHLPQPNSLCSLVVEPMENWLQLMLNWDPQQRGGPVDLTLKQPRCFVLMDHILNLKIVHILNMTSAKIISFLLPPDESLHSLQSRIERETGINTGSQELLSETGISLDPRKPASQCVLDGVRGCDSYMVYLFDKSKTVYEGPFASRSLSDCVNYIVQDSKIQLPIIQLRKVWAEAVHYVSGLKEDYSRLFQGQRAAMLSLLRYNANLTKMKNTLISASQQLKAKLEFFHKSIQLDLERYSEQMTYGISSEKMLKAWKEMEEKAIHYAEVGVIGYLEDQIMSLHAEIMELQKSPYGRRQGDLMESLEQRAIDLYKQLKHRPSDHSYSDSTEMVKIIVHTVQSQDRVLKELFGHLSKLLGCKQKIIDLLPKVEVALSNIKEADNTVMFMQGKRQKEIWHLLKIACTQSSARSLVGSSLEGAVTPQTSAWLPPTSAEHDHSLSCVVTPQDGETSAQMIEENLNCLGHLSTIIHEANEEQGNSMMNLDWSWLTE
As to the kind of experiment: DELFIA IKKα kinase assay (apparent Ki, Cheng-Prusoff). The class given is biochemical. Here is the method: (§1) IKKα and IKKβ inhibitory activity was determined using three different assays: a dissociation enhanced ligand fluorescent immunoassay (DELFIA) based on the protocol of HTScan™ IKKβ Kinase Assay (Cell Signaling Technology, USA); an Adapta IKKα assay (performed by Life Technologies); a Z′-LYTE™ IKKβ assay (performed by Life Technologies).
(§2) Recombinant IKKα or IKKβ, 37 nM, (Millipore, Dundee, UK) was incubated with IηB-α (Ser32) (New England Biolabs, Hitchin, UK) biotinylated peptide substrate (0.375 μM) and 40 μM ATP in assay buffer (40 mM Tris-HCl (pH 7.5), 20 mM MgCl2, EDTA 1 mM, DTT 2 mM and BSA 0.01 mg/ml) in a V-well 96-well plate in the presence and absence of test compound. The assay plate was incubated for 60 minutes at 30° C. after which the kinase reaction was quenched by the addition of 50 mM EDTA, pH8. The resulting mixture was transferred to a streptavidin coated 96-well plate (Perkin Elmer, Beaconsfield, UK) and incubated for 1 hour at 30° C. to immobilise the substrate peptide. After three washes with wash buffer (0.01 M phosphate buffered saline (PBS), 0.05% Tween −20, pH 7.4) a primary antibody against the phosphorylated substrate (phospho-IηB-a) (Ser32/36) (5A5) Mouse mAb (New England Biolabs, Hitchin, UK) (1:1000 dilution with 1% bovine serum albumin (BSA) in wash buffer) was added and incubated at 37° C. for 2 h.
(§3) After a further three washes, a secondary europiated antibody (Eu-N1 labelled anti-mouse IgG, (Perkin Elmer, Beaconsfield, UK) diluted 1:500 in 1% BSA/wash buffer) was added and incubated at 30° C. for 30 minutes. After a further five washes, DELFIA enhancement solution—(Perkin Elmer, Beaconsfield UK) was added and allowed to incubate for 10 min at room temperature, protected from light, to facilitate the chemifluorescent detection. The relative fluorescence units (RFU) signal were measured on a Wallac Victor 1420 multilabel counter (Perkin Elmer, Beaconsfield, UK), in time-resolved fluorescence mode. The counter was set at an excitation wavelength of 340 nm with a 400 μs delay before detecting emitted light at 615 nm. The apparent Ki of the […] was calculated for each compound using the Cheng-Prusoff Equation.
(§4) The IKKα and IKKβ figures quoted in non-italicised form are from the DELFIA assay described above.

For a further assay, the target named is T2, Recombinant IKKβ (Homo sapiens, UniProt O14920).
T2 construct: purchased Millipore, Dundee, UK
T2 sequence (O14920 1-756): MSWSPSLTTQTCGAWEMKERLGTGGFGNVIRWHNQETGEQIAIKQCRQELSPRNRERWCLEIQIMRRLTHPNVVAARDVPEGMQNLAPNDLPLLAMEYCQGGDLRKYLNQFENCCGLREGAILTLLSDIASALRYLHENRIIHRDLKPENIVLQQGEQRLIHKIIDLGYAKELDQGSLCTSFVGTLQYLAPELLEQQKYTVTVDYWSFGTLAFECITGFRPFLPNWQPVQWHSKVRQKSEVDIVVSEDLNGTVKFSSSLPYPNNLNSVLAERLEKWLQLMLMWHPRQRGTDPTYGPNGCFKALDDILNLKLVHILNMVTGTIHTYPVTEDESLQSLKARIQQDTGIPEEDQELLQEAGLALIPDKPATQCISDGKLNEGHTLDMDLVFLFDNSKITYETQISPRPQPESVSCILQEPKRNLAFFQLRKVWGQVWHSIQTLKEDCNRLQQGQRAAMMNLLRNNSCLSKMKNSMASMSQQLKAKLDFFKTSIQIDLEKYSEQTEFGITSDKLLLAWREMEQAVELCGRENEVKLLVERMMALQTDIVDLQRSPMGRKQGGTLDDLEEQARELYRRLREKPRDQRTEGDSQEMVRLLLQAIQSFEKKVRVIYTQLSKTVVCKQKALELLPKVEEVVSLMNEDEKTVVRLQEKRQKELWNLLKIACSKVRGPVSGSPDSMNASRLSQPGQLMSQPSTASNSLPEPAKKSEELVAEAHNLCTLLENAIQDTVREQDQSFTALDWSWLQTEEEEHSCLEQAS
Kind of assay: DELFIA IKKβ kinase assay (apparent Ki, Cheng-Prusoff). Conditions: non-italicised figure: DELFIA assay. The class given is biochemical. Here is the method: as §1, §2, §3, §4

Where [1] appears, read: non-italicised figure: DELFIA assay.
[2] abbreviates: DELFIA assay (first line of an example).

With `Nc1cc(-c2cc(Cl)c3[nH]nc(N)c3c2)ccn1` [Example 1, 5-(2-Aminopyridin-4-yl)-7-chloro-1H-indazol-3-amine], the Ki stood at 0.055 µM at Recombinant IKKα (setting [1]) and 0.88 µM at Recombinant IKKβ. As for `Cc1cc(-c2ccnc(N)c2)cc2c(N)n[nH]c12` [Example 2, 5-(2-Aminopyridin-4-yl)-7-methyl-1H-indazol-3-amine], the Ki at Recombinant IKKα (setting [1]) came out at 0.072 µM; on Recombinant IKKβ it was 0.461 µM.

`Nc1cc(-c2cc(C(F)(F)F)c3[nH]nc(N)c3c2)ccn1` [Example 3, 5-(2-Aminopyridin-4-yl)-7-(trifluoromethyl)-1H-indazol-3-amine]: the Ki at Recombinant IKKα (setting [1]) came to 0.038 µM; on Recombinant IKKβ, 0.194 µM.

For the compound `Nc1n[nH]c2c(Cl)cc(-c3ccnc4[nH]ccc34)cc12` [Example 4, 7-Chloro-5-(1H-pyrrolo[2,3-b]pyridin-4-yl)-1H-indazol-3-amine], the Ki at Recombinant IKKα (setting [1]) was 0.004 µM; on Recombinant IKKβ, 0.093 µM. For `Nc1n[nH]c2c(Br)cc(-c3ccnc4[nH]ccc34)cc12` [Example 5, 7-Bromo-5-(1H-pyrrolo[2,3-b]pyridin-4-yl)-1H-indazol-3-amine], the Ki at Recombinant IKKα (setting [1]) was 0.006 µM; at Recombinant IKKβ, 0.026 µM. Regarding `C#Cc1cc(-c2ccnc3[nH]ccc23)cc2c(N)n[nH]c12` [Example 6, 7-Ethynyl-5-(1H-pyrrolo[2,3-b]pyridin-4-yl)-1H-indazol-3-amine], the Ki at Recombinant IKKα (setting [1]) is 0.026 µM; on Recombinant IKKβ, 0.137 µM.

As for `Nc1n[nH]c2c(-c3ccccc3)cc(-c3ccnc4[nH]ccc34)cc12` [Example 7, 7-Phenyl-5-(1H-pyrrolo[2,3-b]pyridin-4-yl)-1H-indazol-3-amine], the Ki on Recombinant IKKα (setting [1]) was determined as 0.035 µM; at Recombinant IKKβ, 1.26 µM. With `Cc1cc2c(-c3ccc4[nH]nc(N)c4c3)ccnc2[nH]1` [Example 8, 5-(2-Methyl-1H-pyrrolo[2,3-b]pyridin-4-yl)-1H-indazol-3-amine], the Ki on Recombinant IKKα (setting [1]) stood at 0.002 µM; at Recombinant IKKβ, 0.033 µM. Take `CC(C)(C)c1cc2c(-c3ccc4[nH]nc(N)c4c3)ccnc2[nH]1` [Example 9, 2-(Tert-butyl)-4-(3-amino-1H-indazol-5-yl)-7-azaindole]: the Ki at Recombinant IKKα (setting [1]) is 0.019 µM; on Recombinant IKKβ it was 0.109 µM. Turning to `Nc1n[nH]c2ccc(-c3ccnc4[nH]c(C(=O)O)cc34)cc12` [Example 10, 4-(3-Amino-1H-indazol-5-yl)-1H-pyrrolo[2,3-b]pyridine-2-carboxylic acid], the results for the Ki on Recombinant IKKα (setting [1]) and on Recombinant IKKβ were 0.005 µM and 0.335 µM, respectively.

Turning to `Nc1n[nH]c2c(Br)cc(-c3ncnc4[nH]ccc34)cc12` [Example 11, 7-Bromo-5-(7H-pyrrolo[2,3-d]pyrimidin-4-yl)-1H-indazol-3-amine], the Ki at Recombinant IKKα (setting [1]) was determined as 0.039 µM; on Recombinant IKKβ, 0.258 µM. The matching figures for `CCNc1cc(-c2ccc3[nH]nc(N)c3c2)ccn1` [Example 12, 5-[2-(Ethylamino)pyridin-4-yl]-1H-indazol-3-amine]: 0.008 µM and 0.038 µM. The matching figures for `CCCNc1cc(-c2ccc3[nH]nc(N)c3c2)ccn1` [Example 13, 5-(2-(Propylamino)pyridin-4-yl)-1H-indazol-3-amine]: 0.049 µM and 0.251 µM.

On to `CC(C)Nc1cc(-c2ccc3[nH]nc(N)c3c2)ccn1` [Example 14, 5-(2-(Isopropylamino)pyridin-4-yl)-1H-indazol-3-amine], for which the Ki was found to be 0.076 µM on Recombinant IKKα (setting [1]) and 0.587 µM at Recombinant IKKβ. Consider `Nc1nccc(-c2ccc3[nH]nc(N)c3c2)c1CCCCO` [Example 101, 4-(2-Amino-4-(3-amino-1H-indazol-5-yl)pyridin-3-yl)butan-1-ol], for which the Ki at Recombinant IKKα (setting [1]) was found to be 5.58 µM. For `Nc1nccc(-c2ccc3[nH]nc(N)c3c2)c1CCC1(O)CCCCC1` [Example 102, 1-(2-(2-Amino-4-(3-amino-1H-indazol-5-yl)pyridin-3-yl)ethyl)cyclohexan-1-ol], the Ki at Recombinant IKKα (setting [1]) was 8.98 µM. In the case of `Nc1nccc(-c2ccc3[nH]nc(N)c3c2)c1CCCCCO` [Example 103, 5-(2-Amino-4-(3-amino-1H-indazol-5-yl)pyridin-3-yl)pentan-1-ol], the Ki on Recombinant IKKα (setting [1]) is 24.8 µM. The same measure, in the same setting: for `CC(C)(C)C#Cc1cc(-c2ccnc(N)n2)cc2c(N)n[nH]c12` [Example 143, 5-(2-Aminopyrimidin-4-yl)-7-(3,3-dimethylbut-1-yn-1-yl)-1H-indazol-3-amine] the value was 0.517 µM.

Take `CC(C)(C)C#Cc1cc(-c2cc(N)nc(F)c2)cc2c(N)n[nH]c12` [Example 150, 5-(2-Amino-6-fluoropyridin-4-yl)-7-(3,3-dimethylbut-1-yn-1-yl)-1H-indazol-3-amine]: the Ki at Recombinant IKKα (setting [1]) was found to be 0.573 µM.

Regarding `CC(C)(C)C#Cc1cc(-c2cc(N)nc(N)c2)cc2c(N)n[nH]c12` [Example 151, 4-(3-Amino-7-(3,3-dimethylbut-1-yn-1-yl)-1H-indazol-5-yl)pyridine-2,6-diamine], on Recombinant IKKα (setting [1]), the Ki was determined as 0.931 µM. Still for that read-out and setting: for `CC1(C#Cc2cc(-c3ccnc(NC4CC4)c3)cc3c(N)n[nH]c23)COC1` [Example 176, 5-(2-(Cyclopropylamino)pyridine-4-yl)-7-((3-methyloxetan-3-yl)ethynyl)-1H-indazol-3-amine] the value was 0.019 µM; for `CC(=O)Nc1cc(-c2cc(C#Cc3ccccc3)c3[nH]nc(N)c3c2)ccn1` [Example 178, N-(4-(3-Amino-7-(phenylethynyl)-1H-indazol-5-yl)pyridin-2-yl)acetamide], 0.022 µM. On to `CC(C)(C)C#Cc1cc(-c2ccnc(NS(C)(=O)=O)c2)cc2c(N)n[nH]c12` [Example 193, N-(4-(3-Amino-7-(3,3-dimethylbut-1-yn-1-yl)-1H-indazol-5-yl)pyridine-2-yl)methanesulfonamide], for which the Ki on Recombinant IKKα (setting [2]) turned out to be 5.52 µM.

Consider `CC(=O)Nc1cc(-c2cc(C#CC(C)(C)C)c3[nH]nc(N)c3c2)cc(F)n1` [Example 195, N-(4-(3-amino-7-(3,3-dimethylbut-1-yn-1-yl)-1H-indazol-5-yl)-6-fluoropyridin-2-yl)acetamide], for which the Ki at Recombinant IKKα (setting [2]) was found to be 21.8 µM.

Regarding `CC(C)(C)C#Cc1cc(-c2ccnc3[nH]c(CN4CCOCC4)cc23)cc2c(N)n[nH]c12` [Example 279, 7-(3,3-Dimethylbut-1-yn-1-yl)-5-(2-(morpholinomethyl)-1H-pyrrolo[2,3-b]pyridin-4-yl)-1H-indazol-3-amine], the Ki at Recombinant IKKα (setting [2]) turned out to be 0.013 µM.
